In patent EP0358766A1, “METHOD OF STERILIZING PLANT ANTHERS” (VSESOJUZNY NAUCHNO-ISSLEDOVATELSKY INST. SELSKOKHOZYAISTV. …, priority 1988, dated 1989):

Tested on: diploidem Roggen Voskhod 2
Assay: Field test of gametocidal activity, diploid rye Voskhod 2
Type: in vivo
Conditions: period V, 1% aqueous emulsion, 10 kg/ha in 1000 l water
Description: Die gametozide Aktivität der erfindungsgemäßen Sterilisationsmittel war in Feldversuchen in verschiedenen bodenklimatischen Zonen mit Teilstücken von 10 m^2 Größe in dreibis viermaliger Wiederholung festgestellt. Jedes Sterilisationsmittel wurde mindenstens 5 Jahre lang geprüft.
Die Entwicklung der Perioden der Organogenese wird zytologisch überwacht. Die Behandlung von Pflanzen mit dem Sterilisationsmittel erfolgt am Anfang der fünften Periode der Organogenese nach Kupermann.
Mit dem Ährenschieben verwirklicht man die Isolierung von Hauptähren und anderen Stockwerken in Pergametbeuteln. Bei Weizen und Tritikale werden Einzelisolatoren benutzt. Bei Roggen schließt man je 1 Ähre von […] verschiedenen nebeneinander befindlichen Pflanzen unter einen gemeinsamen Isolator ein. Bei Hirse wird jede Rispe getrennt isoliert. Der Sterilitätsprozentsatz (X) für Weizen, Roggen, Tritikale und Hirse wird nach der Formel [formula] ermittelt.
Die Kornzahl in nicht isolierten Ähren von Kontrollpflanzen wird bedingt für 100 % Ansetzen bei freier Bestäubung angenommen.
Um zuverlässige Angaben zu erhalten, verwendet man 20 bis 25 Isolatoren je Wiederholung für Weizen und Tritikale, 10 bis 15 Isolatoren jeder Wiederholung für Roggen und Hirse.
Pflanzen von diploidem Roggen Voskhod 2 werden in der V. Periode der Organogenese mit einer 1%igen wäßrigen Emulsion von 1,1,3-Tribrompropan, 1,1,3-Tribrom-4-chlorbutan bzw. 1,1,2,3-Tetrabrompropan behandelt. Die Emulsion enthält 0,5 Masse% C12-C14-Kalziumalkylbenzolsulfonat und 0,01 Masse% Dimethylformamid. Der Verbrauch an Präparat beträgt 10 kg/ha bei 1000 1 Wasserdurchsatz. Die Prüfergebnisse sind in der Tabelle 14 angegeben. Die gleichen Ergebnisse sind bei der Behandlung von diploidem Roggen Voskhod 2 in der VI. Periode der Organogenese erhalten..

SMILES: BrCCC(Br)Br [Beispiel 1, 1,1,3-Tribrompropan]
- Kornzahl der Ähre bei freier Bestäubung: 48,6
- Kornzahl der Ähre unter Isolator: 0,9
- Prozentsatz der Sterilität: 98,2%
- Prozentsatz des Ansetzens von Samen bei freier Bestäubung (control = 100): 89,0%
